Test results: patent publication US20240091110A1, “Oral Care Compositions and Methods of Use” (Colgate-Palmolive Company, priority 2019, published 2024)

System: mixed species biofilm
Assay: Seahorse XFe Extracellular Flux Analyzer, Mitochondrial Respiration - Oxygen Consumption Rate (OCR) in mixed biofilm assay
Format: cell-based
Method: Samples with varying amounts of cannabidiol (CBD) are assessed for their effects on cellular metabolism with and without various source of zinc. Using the Seahorse XF^e Extracellular Flux Analyzer, biofilm samples are grown for 48 hrs. […] The biofilms are harvested for culture. Diluted biofilm and toothpaste slurry are loaded to each well. Glycolysis—Extracellular Acidification Rate (ECAR) and Mitochondrial Respiration—Oxygen Consumption Rate (OCR) is measured for 25-50 cycles (˜360 minutes). The “CBD Oil” is 5% CBD (by wt. of the CBD Oil) in Hemp seed oil.
Where the “OCR” is oxygen consumption rate units as measured using the Seahorse XF^e Extracellular Flux Analyzer: […]

Structure (SMILES)	Average (OCR) (Table 3, separate experiment, stannous slurry, untreated 11489.9)	Average (OCR) (Table 1, CBD and zinc lactate, biofilm grown 48 hrs, untreated 25,669.50)
[F][Sn][F] [0.2% by wt. Stannous Fluoride, Stannous Fluoride]	10440.7	–
CC(O)C(=O)[O-].CC(O)C(=O)[O-].[Zn+2] (centres unmarked) [1.5% Zinc Lactate, Zinc Lactate]	–	21,900.63
